In article PMC11992225, “Antibacterial compounds against non-growing and intracellular bacteria” (npj Antimicrobials and Resistance, 2025):
Converted amounts (≈) assume the structure as drawn. Read-outs that look alike come from different tables or passages of the source.

Legend:
[1] = tested on: P. aeruginosa DSM1117; assay: MIC, standard microdilution assay, growing P. aeruginosa; assay type: cell-based, Pseudomonas aeruginosa
Summary of the method: (§1)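 Medium: CA-MHB + 40 mM HEPES, pH 7.4 (UPEC, P. aeruginosa, S. aureus); LPM + 30 mM MES, pH 5.5 (UPEC, extra condition); TSB (S. flexneri). Microdilution format, n = 3.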

[2] = tested on: S. flexneri 5a M90T; assay: MIC in tryptic soy broth, S. flexneri; assay type: cell-based, Shigella flexneri; conditions: for MIC: Shigella flexneri, 5AM90T, read-out: MIC (μM) TSB; for MIC (μM) TSB: S. flexneri, extracellular bacteria in TSB
Summary of the method: as §1

[3] = tested on: E. coli CFT073 (UPEC); assay: MIC, standard microdilution assay, growing UPEC; assay type: cell-based, Escherichia coli; conditions: for MIC (μM) CA-MHB +PAβN: CA-MHB with 10 μg/ml efflux pump inhibitor PaβN
Summary of the method: as §1

[4] = tested on: intracellular S. flexneri 5a M90T in TC7 cells; assay: microbe, parasite or virus in culture; assay type: cell-based, Shigella flexneri; conditions: for IC50: Shigella flexneri, TC7, 14 h; for Fluorescence intensity (RFU), Mean, 0.0625 x MIC / Fluorescence intensity (RFU), Mean, 0.125 x MIC / Fluorescence intensity (RFU), Mean, 0.25 x MIC / Fluorescence intensity (RFU), Mean, 0.5 x MIC / Fluorescence intensity (RFU), Mean, 2 x MIC / Fluorescence intensity (RFU), Mean, 4 x MIC / Fluorescence intensity (RFU), Mean, 8 x MIC / Fluorescence intensity (RFU), Mean, 16 x MIC / Fluorescence intensity (RFU), Mean, 32 x MIC / Fluorescence intensity (RFU), Mean, MIC: TC7 cells infected with GFP-expressing S. flexneri, 14 h treatment
From the text: Nonproliferating bacterial pathogens frequently inhabit intracellular environments, but establishing relevant infection models for high-throughput testing is challenging. Therefore, we firstly tested ability of the hit compounds to cross the eukaryotic cytoplasmic membrane barrier and inhibit growth of S. flexneri within the cytoplasm of the TC7 human colon adenocarcinoma cell line[59]. To this end, we developed a new, fluorescence-based method that enables real-time monitoring of growth of intracellular Shigella. We used S. flexneri 5a M90T strain producing the AfaE adhesin that enhances bacterial adhesion to epithelial cells and allows synchronization of invasion. The strain was further modified to constitutively express super-folder GFP (sfGFP), which enables monitoring bacterial growth by fluorescence measurement. The epithelial cells were grown to confluence and infected with bacteria at an MOI (multiplicity of infection) of 50. […] Following bacterial adhesion and invasion, the cells were incubated with varying concentrations of the hit compounds and intracellular bacterial growth was tracked by measuring green fluorescence.
The cells were split using trypsin, seeded in 96-well plates for infection, and grown to confluence, corresponding to approximately 40,000 cells per well.
A single colony of S. flexneri was inoculated into TSB supplemented with 50 μg/ml spectinomycin and incubated overnight at 37°C with agitation. The overnight culture was diluted 1:200 in fresh TSB, and the bacteria were grown at 37 °C until the OD600 reached 0.3–0.4, corresponding to approximately 2 × 10^7 CFU/ml. Bacteria were pelleted by centrifugation, washed twice with sterile PBS, and resuspended in infection solution (serum-free DMEM supplemented with 20 mM HEPES, pH 7.4). Just prior to infection, the medium was withdrawn, and the cells were washed twice with sterile PBS. The bacterial inoculum (MOI 50, 2 × 10^7 CFU/ml) was added to all wells except the no-infection control. The plates were incubated at room temperature for 15 min to allow bacterial adhesion, followed by a 1 h incubation at 37 °C with 5% CO2 to facilitate bacterial invasion.
Twofold serial dilutions of the drugs were prepared in infection solution containing 50 μg/ml gentamicin in a 96-well plate. After the invasion period, the bacterial inoculum was removed, and the serial dilutions of the drugs were added to the wells, except for the no-drug control. […] […] The experiments were performed in triplicates on separate days.
Statistical significance of the drug effects was assessed using a one-way ANOVA followed by Dunnett’s test, comparing each treatment to the drug-free control. Statistical significance of the differences in chemical characteristics between the hit compounds and the Prestwick library was assessed using a Mann–Whitney test. Statistical significance was set at P ≤ 0.05. A five-parameter logistic equation was used for asymmetric sigmoidal curve fitting and for EC50 and IC50 determination. The Venn diagram in Fig. 1F was prepared using BioVenn web application. Characteristics of the chemical and physical properties of Prestwick library compounds were obtained from Supplementary Table S1 from reference. Characteristics of the hit compounds not included in the Prestwick library were retrieved from the PubChem database.

[5] = tested on: non-growing P. aeruginosa DSM1117; assay: Dilution-regrowth assay (OD600, start-growth-time) on stationary-phase P. aeruginosa; assay type: cell-based, Pseudomonas aeruginosa; conditions: P. aeruginosa; for Regrowth, OD600 at 6h or 8h after dilution into drug-free medium: average
Experimental: To determine the spectrum of activity of the compounds that were effective against non-growing UPEC, we further assessed their efficacy against the well-characterized Gram-negative and Gram-positive reference strains P. aeruginosa DSM1117 and S. aureus DSM2569, respectively. The cultures were grown and treated for 24 h in 1:4 CA-MHB (pH 7.4). […].
For better characterization of the compounds causing the strongest regrowth delay, we performed the regrowth step of the dilution-regrowth experiments on a plate reader, measuring the OD600 at 20-min intervals for over 20 h instead of using an endpoint measurement. This approach allowed us to capture the time when cultures reached a threshold optical density (start-growth-time, SGT[15]).
Overnight cultures of UPEC, P. aeruginosa and S. aureus were grown in test tubes containing 3 ml of LB broth (~16 h), then diluted 1:100 into either 1:4 diluted CA-MHB medium buffered with 40 mM HEPES (pH 7.4) or, in case of UPEC, into LPM medium[25] supplemented with 49 µM MgCl2 and buffered with 30 mM MES (pH 5.5). The cultures were incubated for 24 h in non-baffled Erlenmeyer flasks at 37 °C with shaking at 200 rpm.
For P. aeruginosa and S. aureus, dose–response analysis was conducted in 96-well plates with a 200 μl assay volume, following the procedure used for screening assay validation experiments. Aliquots of the 39 compounds active against non-growing UPEC were obtained from SelleckChem and MedChem Express. Stock solutions were prepared and stored according to the manufacturers’ instructions, then diluted in 10% DMSO before use. Cultures were incubated for 24 h in 1:4 diluted CA-MHB medium under the same conditions used for UPEC cultivation. In preliminary experiments, each compound was tested at a concentration of 20 μM in the dilution-regrowth assay with 4 technical replicates. Regrowth was monitored using a microplate reader at 37 °C with continuous shaking, and OD600 was recorded every 20 min. The time at which OD600 exceeded the threshold of 0.12 was recorded as the Start_Growth-Time.
The statistical analysis of all data, as well as EC50 and IC50 determination, was conducted using GraphPad Prism 10.2.3. Statistical significance of the drug effects was assessed using a one-way ANOVA followed by Dunnett’s test, comparing each treatment to the drug-free control. Statistical significance of the differences in chemical characteristics between the hit compounds and the Prestwick library was assessed using a Mann–Whitney test. Statistical significance was set at P ≤ 0.05. A five-parameter logistic equation was used for asymmetric sigmoidal curve fitting and for EC50 and IC50 determination. The Venn diagram in Fig. 1F was prepared using BioVenn web application. Characteristics of the chemical and physical properties of Prestwick library compounds were obtained from Supplementary Table S1 from reference. Characteristics of the hit compounds not included in the Prestwick library were retrieved from the PubChem database.

[6] = Pseudomonas aeruginosa, DSM1117, P. aeruginosa, CA-MHB pH 7.4, read-out: MIC (μM) CA-MHB
[7] = Escherichia coli, E. coli, LPM pH 5.5, read-out: MIC
[8] = Escherichia coli, E. coli, pH 7.4, CA-MHB, read-out: MIC (μM) CA-MHB
[9] = E. coli, LPM pH 5.5, read-out: MIC
[10] = E. coli, pH 7.4, CA-MHB, read-out: MIC (μM) CA-MHB

Row | Molecule | MIC [2] | MIC (μM) CA-MHB +PAβN ([3]; E. coli, pH 7.4) | Fluorescence intensity (RFU), Mean, 0.25 x MIC [4] | Fluorescence intensity (RFU), Mean, 0.5 x MIC [4] | Fluorescence intensity (RFU), Mean, 2 x MIC [4] | Fluorescence intensity (RFU), Mean, 4 x MIC [4] | Fluorescence intensity (RFU), Mean, 8 x MIC [4] | Fluorescence intensity (RFU), Mean, 16 x MIC [4] | Fluorescence intensity (RFU), Mean, MIC [4] | MIC [1, 6] | MIC [3, 8] | other results
1 | CS[C@H]1SC[C@H]2C(=O)N(C)[C@@H](C(C)C)C(=O)OC[C@@H](NC(=O)c3cnc4ccccc4n3)C(=O)N[C@@H](C)C(=O)N(C)[C@@H]1C(=O)N(C)[C@@H](C(C)C)C(=O)OC[C@@H](NC(=O)c1cnc3ccccc3n1)C(=O)N[C@@H](C)C(=O)N2C [Echinomycin] | 4 µM (≈ 4.41 µg/mL) | 40 µM (≈ 44.1 µg/mL) | – | – | – | – | – | – | – | – | – | MIC ([1]; Pseudomonas aeruginosa, DSM1117, pH 7.4, read-out: MIC (μM) CA-MHB): > 80 µM; MIC ([3]; Escherichia coli, pH 5.5): 4 µM (≈ 4.41 µg/mL); MIC ([3]; Escherichia coli, pH 7.4, read-out: MIC (μM) 1:4 CA-MHB): 40 µM (≈ 44.1 µg/mL); MIC ([3]; Escherichia coli, pH 7.4, read-out: MIC (μM) CA-MHB): 20 µM (≈ 22 µg/mL)
2 | CO[C@H]1/C=C/O[C@@]2(C)Oc3c(C)c(O)c4c(O)c(c(/C=N/N5CCN(C)CC5)c(O)c4c3C2=O)NC(=O)/C(C)=C\C=C\[C@H](C)[C@H](O)[C@@H](C)[C@@H](O)[C@@H](C)[C@H](OC(C)=O)[C@@H]1C [Rifampicin] | 8 µM (≈ 6.58 µg/mL) | 1 µM (≈ 0.823 µg/mL) | 10619.3 RFU | 4149.04 RFU | 1695.78 RFU | 1392.42 RFU | 1299.69 RFU | 1165.58 RFU | 2886.31 RFU | 80 µM (≈ 65.8 µg/mL) | 8 µM (≈ 6.58 µg/mL) | IC50 [4]: 3.23 µM; Fluorescence intensity (RFU), Mean, 0.0625 x MIC [4]: 10229.8 RFU; Fluorescence intensity (RFU), Mean, 0.125 x MIC [4]: 10528.2 RFU; Fluorescence intensity (RFU), Mean, 32 x MIC [4]: 1042.53 RFU; MIC [3, 7]: 0.5 µM (≈ 0.411 µg/mL); MIC ([3]; Escherichia coli, E. coli, pH 7.4, 1:4 diluted CA-MHB, read-out: MIC (μM) 1:4 CA-MHB): 5 µM (≈ 4.11 µg/mL)
3 | CCCCCCCCN=c1ccn(CCCCCCCCCCn2ccc(=NCCCCCCCC)cc2)cc1 [Octenidine] | – | – | – | – | – | – | – | – | – | 4 µM (≈ 2.2 µg/mL) | 1 µM (≈ 0.551 µg/mL) | MIC [3, 7]: 0.5 µM (≈ 0.275 µg/mL); Regrowth, OD600 at 6h or 8h after dilution into drug-free medium ([5]; concentration 0.1): 0.666; Regrowth, OD600 at 6h or 8h after dilution into drug-free medium ([5]; concentration 0.5): 0.602; Regrowth, OD600 at 6h or 8h after dilution into drug-free medium ([5]; concentration 2.5): 0.656; Regrowth, OD600 at 6h or 8h after dilution into drug-free medium (average) ([5]; drug concentration 10): 0.533; EC50 ([5]; Pseudomonas aeruginosa, DSM1117, regrowth delay of non-growing bacteria, 1:4 CA-MHB pH 7.4, 24 h treatment, OD600 8 h after dilution, read-out: EC50): 9.99 µM
4 | CC1COc2c(N3CCN(C)CC3)c(F)cc3c(=O)c(C(=O)O)cn1c23 (stereo not shown) [Ofloxacin] | 0.125 µM (≈ 0.0452 µg/mL) | – | 9690.38 RFU | 8574.42 RFU | 3677.86 RFU | 3135.58 RFU | 2241.58 RFU | 1713.97 RFU | 4797.17 RFU | 8 µM (≈ 2.89 µg/mL) | 0.25 µM (≈ 0.0903 µg/mL) | IC50 [4]: 0.113 µM; Fluorescence intensity (RFU), Mean, 32 x MIC [4]: 1616.14 RFU
5 | Plicamycin | – | – | – | – | – | – | – | – | – | – | – | MIC (μM) TSB [2]: >128 µM; MIC [3, 9]: 32 µM; MIC [3, 10]: 160 µM
6 | CO[C@H]1/C=C/O[C@@]2(C)Oc3c(C)c(O)c4c(O)c(c(/C=N/N=C/N5CCCCC5)c(O)c4c3C2=O)NC(=O)/C(C)=C\C=C\[C@H](C)[C@H](O)[C@@H](C)[C@@H](O)[C@@H](C)[C@H](OC(C)=O)[C@@H]1C [FCE-22250] | – | 4 µM (≈ 3.34 µg/mL) | 2896.5 RFU | 1857.94 RFU | 1320.58 RFU | 1217.94 RFU | 1111.33 RFU | 979.361 RFU | 1487.86 RFU | – | – | Fluorescence intensity (RFU), Mean, 0.0625 x MIC [4]: 8508.25 RFU; Fluorescence intensity (RFU), Mean, 0.125 x MIC [4]: 9069.58 RFU; MIC ([1]; P. aeruginosa, 1:4 diluted CA-MHB pH 7.4, read-out: MIC (μM) 1:4 CA-MHB): 10 µM (≈ 8.35 µg/mL); MIC ([1]; P. aeruginosa, CA-MHB pH 7.4, read-out: MIC (μM) CA-MHB): >160 µM; MIC (μM) TSB [2]: 16 µM (≈ 13.4 µg/mL); MIC [3, 9]: 2 µM (≈ 1.67 µg/mL); MIC ([3]; E. coli, pH 7.4, 1:4 diluted CA-MHB, read-out: MIC (μM) 1:4 CA-MHB): 10 µM (≈ 8.35 µg/mL); MIC [3, 10]: 8 µM (≈ 6.68 µg/mL)
7 | CCCCC(CC)CNC(=N)NC(=N)NCCCCCCNC(=N)NC(=N)NCC(CC)CCCC (stereo not shown) [Alexidine] | 1 µM (≈ 0.509 µg/mL) | – | – | – | – | – | – | – | – | – | 2 µM (≈ 1.02 µg/mL) | –
